Here are results for 39 compounds from US20240376126A1, “PRMT5 INHIBITOR AND THE USE THEREOF” (CYTOSINLAB THERAPEUTICS CO., LTD., priority 2022, published 2024).

For one experiment, the system named is HCT116 MTAP WT cells. The experiment in a line: Proliferation inhibition of HCT116 cells in vitro (CellTiter Glo, 6 days). Conditions: Homo sapiens, HCT-116, 144 h, read-out: Cell proliferation inhibition rate HCT116 MTAP WT IC50 (nm). Format: cell-based.
Experiment [1] has as its system HCT116-MTAP-KO (MTAP null) cells. The experiment in a line: Proliferation inhibition of HCT116 MTAP-KO cells in vitro (CellTiter Glo, 6 days). Format: cell-based. Particulars: HCT116-MTAP null, 144 h, read-out: Cell proliferation inhibition rate HCT116-MTAP null IC50 (nm).

Molecules are shown by their SMILES.

Take `Cc1ncc2c(N)nc3cc(F)c(C(=O)N(Cc4cn5ccccc5n4)c4cnn(C)c4)cc3n12` [Example 181]: the results for the IC50 (in the experiment on HCT116 MTAP WT cells; in experiment [1]) were 1000 to 10000 nM and 100 to 1000 nM, respectively.
For `Cc1ncc2c(N)nc3cc(F)c(C(=O)N(Cc4cn5cc(C(F)(F)C(F)(F)F)ccc5n4)CC(C)C)cc3n12` [Example 182], the IC50 with HCT116 MTAP WT cells was 100 to 1000 nM; in experiment [1], < 100 nM.
As to `Cc1ncc2c(N)nc3cc(F)c(C(=O)N(Cc4cn5cc(C(F)(F)F)ccc5n4)c4cnn(C)c4)cc3n12` [Example 183], the IC50 in the experiment on HCT116 MTAP WT cells was 1000 to 10000 nM; in experiment [1] it was < 100 nM.
As to `CCN(Cc1cn2ccccc2n1)C(=O)c1cc2c(cc1F)nc(N)c1cnc(C)n12` [Example 184], the values for the IC50 (with HCT116 MTAP WT cells; in experiment [1]) were 1000 to 10000 nM and 100 to 1000 nM, respectively.
Turning to `COC1CCCC1N(Cc1cn2ccccc2n1)C(=O)c1cc2c(cc1F)nc(N)c1cnc(C)n12` (stereo not drawn) [Example 185], the IC50 is 1000 to 10000 nM in the experiment with HCT116 MTAP WT cells and < 100 nM in experiment [1].
On to `Cc1cn2c(n1)c(N)nc1cc(F)c(C(=O)N(Cc3nc4ccccn4c3F)CC(C)C)cc12` [Example 188], for which the IC50 in the experiment on HCT116 MTAP WT cells was 1000 to 10000 nM; in experiment [1] it was < 100 nM.
The like results for `Cc1ncc2c(N)nc3cc(F)c(C(=O)N(Cc4cn5ccccc5n4)C4CCCC4O)cc3n12` (stereo not drawn) [Example 190] were, in that order, 1000 to 10000 nM and 100 to 1000 nM.
In the case of `CCN(Cc1cn2ccccc2n1)C(=O)c1cc2c(cc1Cl)nc(N)c1cnc(C)n12` [Example 192], the IC50 with HCT116 MTAP WT cells lay within 1000 to 10000 nM; in experiment [1] it was 100 to 1000 nM.
For `Cc1ncc2c(N)nc3cc(F)c(C(=O)N(Cc4nc5ccccn5c4F)CC(C)C)cc3n12` [Example 194], the results for the IC50 (in the experiment on HCT116 MTAP WT cells; in experiment [1]) were 1000 to 10000 nM and < 100 nM, respectively.
For `Cc1ncc2c(N)nc3cc(F)c(C(=O)N(Cc4cn5cccc(C(F)(F)F)c5n4)c4cnn(C)c4)cc3n12` [Example 195] the same measures were 1000 to 10000 nM and 100 to 1000 nM.
For `Cc1ncc2c(N)nc3cc(F)c(C(=O)N(Cc4cn5ccccc5n4)c4cccnc4)cc3n12` [Example 199] the same measures were 1000 to 10000 nM and 100 to 1000 nM.
Take `Cc1ncc2c(N)nc3cc(F)c(C(=O)N4C(c5cc6ccccn6n5)COC[C@H]4C)cc3n12` (stereo partly drawn) [Example 203]: the IC50 was 1000 to 10000 nM in the experiment on HCT116 MTAP WT cells and < 100 nM in experiment [1].
In the case of `Cc1ncn2c1c(N)nc1cc(F)c(C(=O)N(Cc3nc4ccccn4c3F)c3cnn(C)c3)cc12` [Example 205], the results for the IC50 (in the experiment with HCT116 MTAP WT cells; in experiment [1]) were 1000 to 10000 nM and < 100 nM, respectively.
For `CCN(Cc1cn2cc(C(F)(F)F)ncc2n1)C(=O)c1cc2c(cc1F)nc(N)c1c(C)ncn12` [Example 207] the same measures were 1000 to 10000 nM and < 100 nM.
For the compound `CCN(Cc1nc2ccccn2c1F)C(=O)c1cc2c(cc1F)nc(N)c1c(C)ncn12` [Example 209], the IC50 with HCT116 MTAP WT cells is 1000 to 10000 nM; in experiment [1], < 100 nM.
Regarding `Cc1ncc2c(N)nc3cc(Cl)c(C(=O)N(Cc4cn5cc(C(F)(F)F)ccc5n4)c4cnn(C)c4)cc3n12` [Example 210], the IC50 with HCT116 MTAP WT cells lay in the range of 1000 to 10000 nM; in experiment [1], 100 to 1000 nM.
For `Cc1ncc2c(N)nc3cc(F)c(C(=O)N(Cc4cc5c(cn4)COC5)c4cnn(C)c4)cc3n12` [Example 211] the same measures were 1000 to 10000 nM and 100 to 1000 nM.
`CCN(Cc1cn2nc(C(F)(F)F)ccc2n1)C(=O)c1cc2c(cc1F)nc(N)c1c(C)ncn12` [Example 213]: the results for the IC50 (with HCT116 MTAP WT cells; in experiment [1]) were 1000 to 10000 nM and 100 to 1000 nM, respectively.
With `CCN(Cc1cc2c(cn1)OCC2)C(=O)c1cc2c(cc1F)nc(N)c1cnc(C)n12` [Example 214], the IC50 lay within 1000 to 10000 nM with HCT116 MTAP WT cells and 100 to 1000 nM in experiment [1].
For `CCN(C(=O)c1cc2c(cc1F)nc(N)c1c(C)ncn12)C1COc2cc(C(F)(F)F)ccc21` (stereo not drawn) [Example 215], the IC50 was 1000 to 10000 nM in the experiment on HCT116 MTAP WT cells and < 100 nM in experiment [1].
The like results for `CCN(Cc1ccc2c(c1)CCO2)C(=O)c1cc2c(cc1F)nc(N)c1cnc(C)n12` [Example 216] were, in that order, 1000 to 10000 nM and 100 to 1000 nM.
Turning to `CCN(Cc1cn2cc(CCN3CCOCC3)ccc2n1)C(=O)c1cc2c(cc1F)nc(N)c1cnc(C)n12` [Example 217], the figures for the IC50 (with HCT116 MTAP WT cells; in experiment [1]) were 1000 to 10000 nM and 100 to 1000 nM, respectively.
The like results for `CCN(Cc1cc2ccc(C(F)(F)F)cn2n1)C(=O)c1cc2c(cc1F)nc(N)c1c(C)ncn12` [Example 218] were, in that order, 1000 to 10000 nM and < 100 nM.
In the case of `Cc1ncc2c(N)nc3cc(F)c(C(=O)N(Cc4ccc5c(c4)CCO5)c4cnn(C)c4)cc3n12` [Example 219], the IC50 in the experiment on HCT116 MTAP WT cells lay within 1000 to 10000 nM; in experiment [1], 100 to 1000 nM.
For `Cc1ncn2c1c(N)nc1cc(F)c(C(=O)N(c3cnn(C)c3)C3COc4ccccc43)cc12` (stereo not drawn) [Example 221] the same measures were 1000 to 10000 nM and < 100 nM.
For `CCN(C(=O)c1cc2c(cc1F)nc(N)c1cnc(C)n12)C1COc2cc(C(F)(F)F)ccc21` (stereo not drawn) [Example 222], the values for the IC50 (in the experiment on HCT116 MTAP WT cells; in experiment [1]) were 1000 to 10000 nM and < 100 nM, respectively.
The like results for `CCN(C(=O)c1cc2c(cc1F)nc(N)c1c(C)ncn12)C1COc2cc(-c3cccnc3)ccc21` (stereo not drawn) [Example 223] were, in that order, 1000 to 10000 nM and 100 to 1000 nM.
The like results for `CCN(C(=O)c1cc2c(cc1F)nc(N)c1c(C)ncn12)C1COc2ccccc21` (stereo not drawn) [Example 224] were, in that order, 1000 to 10000 nM and 100 to 1000 nM.
The like results for `Cc1ncc2c(N)nc3cc(F)c(C(=O)N(c4cnn(C)c4)C4COc5ccccc54)cc3n12` (stereo not drawn) [Example 225] were, in that order, 1000 to 10000 nM and < 100 nM.
Take `Cc1ncn2c1c(N)nc1cc(F)c(C(=O)N(C)C3COc4cc(-c5cnn(C)c5)ccc43)cc12` (stereo not drawn) [Example 226]: the IC50 in the experiment on HCT116 MTAP WT cells is 1000 to 10000 nM; in experiment [1] it was 100 to 1000 nM.
The like results for `Cc1nn(C)cc1N(Cc1cc2ccccn2n1)C(=O)c1cc2c(cc1F)nc(N)c1cnc(C)n12` [Example 227] were, in that order, 1000 to 10000 nM and < 100 nM.
As for `CCN(C(=O)c1cc2c(cc1F)nc(N)c1c(C)ncn12)C1COc2cc(Br)cnc21` (stereo not drawn) [Example 228], the IC50 in the experiment on HCT116 MTAP WT cells lay within 1000 to 10000 nM; in experiment [1], 100 to 1000 nM.
Regarding `COc1ccc(N(Cc2cn3ccccc3n2)C(=O)c2cc3c(cc2F)nc(N)c2cnc(C)n23)cn1` [Example 229], the IC50 with HCT116 MTAP WT cells is 1000 to 10000 nM; in experiment [1], < 100 nM.
Take `Cc1ncc2c(N)nc3cc(F)c(C(=O)N(Cc4cn5cc(C(F)(F)F)ccc5n4)C4CCOC4)cc3n12` (stereo not drawn) [Example 230]: the IC50 in the experiment on HCT116 MTAP WT cells was 1000 to 10000 nM; in experiment [1] it was 100 to 1000 nM.
As to `Cc1nn(C)cc1N(Cc1cn2ncccc2n1)C(=O)c1cc2c(cc1F)nc(N)c1cnc(C)n12` [Example 231], the IC50 in the experiment on HCT116 MTAP WT cells lay within 1000 to 10000 nM; in experiment [1], 100 to 1000 nM.
As for `Cc1ncc2c(N)nc3cc(F)c(C(=O)N(Cc4cc5ccccn5n4)C4CCOC4)cc3n12` (stereo not drawn) [Example 232], the results for the IC50 (with HCT116 MTAP WT cells; in experiment [1]) were 1000 to 10000 nM and 100 to 1000 nM, respectively.
In the case of `Cc1nn(C)cc1N(Cc1cn2cc(C(F)(F)F)ccc2n1)C(=O)c1cc2c(cc1F)nc(N)c1c(C)ncn12` [Example 233], the IC50 in the experiment on HCT116 MTAP WT cells was 1000 to 10000 nM; in experiment [1], < 100 nM.
The like results for `Cc1nn(C)cc1N(Cc1cn2cc(C(F)(F)F)ccc2n1)C(=O)c1cc2c(cc1F)nc(N)c1cnc(C)n12` [Example 234] were, in that order, 1000 to 10000 nM and < 100 nM.
For `Cc1nn(C)cc1N(Cc1cc2ccc(C(F)(F)F)cn2n1)C(=O)c1cc2c(cc1F)nc(N)c1c(C)ncn12` [Example 235] the same measures were < 100 nM and < 100 nM.
